This is an account of results in PubChem BioAssay AID330 (DTP/NCI, 2004).

Where “and” joins values, the source holds several entries; their conditions need not be identical. Identical values can stand only once. Toxic doses and inconclusive results are not listed.

The test system of this test is P388 leukemia ip, CD2F1 mice, survival T/C. Kind of test: NCI In Vivo Anticancer Drug Screen. Data for tumor model P388 Leukemia (intraperitoneal) in CD2F1 (CDF1) mice. To be noted: endpoint: median survival time, higher = longer survival. Put shortly:
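Mice carrying the transplanted tumor received test compound or vehicle. Survival was recorded in each group, and the value is the treated-group measurement divided by that of the vehicle-treated control group.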

[1] abbreviates: dose: 50.0 mg/kg/injection, schedule: Q01DX009 (ip), vehicle: saline with Tween-80.
[2] abbreviates: dose: 100.0 mg/kg/injection, schedule: Q01DX009 (ip), vehicle: saline with Tween-80.
Setting [3] is: dose: 200.0 mg/kg/injection, schedule: Q01DX009 (ip), vehicle: saline with Tween-80.
Setting [4] is: dose: 60.0 mg/kg/injection, schedule: Q01DX005 (ip), vehicle: saline with Tween-80.
[5] abbreviates: dose: 120.0 mg/kg/injection, schedule: Q01DX005 (ip), vehicle: saline with Tween-80.
[6] abbreviates: dose: 240.0 mg/kg/injection, schedule: Q01DX005 (ip), vehicle: saline with Tween-80.
Setting [7] is: dose: 50.0 mg/kg/injection, schedule: Q01DX005 (ip), vehicle: saline.
The mark [8] stands for this setting: dose: 100.0 mg/kg/injection, schedule: Q01DX005 (ip), vehicle: saline.
[9] abbreviates: dose: 200.0 mg/kg/injection, schedule: Q01DX005 (ip), vehicle: saline.
[10] abbreviates: dose: 50.0 mg/kg/injection, schedule: Q01DX005 (ip), vehicle: Klucel (hydroxypropylcellulose) (HPC).
Where [11] appears, read: dose: 100.0 mg/kg/injection, schedule: Q01DX005 (ip), vehicle: Klucel (hydroxypropylcellulose) (HPC).

In the case of `COc1cc2c(cc1OC)-c1[nH]ncc1CC2`, the T/C runs as follows: under setting [1], 101 % of control; under setting [2], 101 % of control; under setting [3], 106 % of control.
Take `O=C(/C=C/c1ccc(OCc2ccccc2)cc1)c1ccccc1Cl`: the T/C is, setting by setting: under setting [1], 110 % of control and 95 % of control; under setting [2], 110 % of control and 91 % of control; under setting [3], 100 % of control; (dose: 400.0 mg/kg/injection, schedule: Q01DX009 (ip), vehicle: saline with Tween-80) 100 % of control.
For the molecule `COCCOCCOCCOCCOCCOCCOCCOC(=O)CCn1cc(F)c(=O)[nH]c1=O`, the T/C was 99 % of control (dose: 62.5 mg/kg/injection, schedule: Q04DX002 (ip), vehicle: saline); 108 % of control (dose: 125.0 mg/kg/injection, schedule: Q04DX002 (ip), vehicle: saline); 101 % of control (dose: 250.0 mg/kg/injection, schedule: Q04DX002 (ip), vehicle: saline); 109 % of control (dose: 500.0 mg/kg/injection, schedule: Q04DX002 (ip), vehicle: saline).
In the case of `COc1cccc(C(=O)O)c1OC`, the T/C was 100 % of control (dose: 100.0 mg/kg/injection, schedule: Q04DX003 (ip), vehicle: saline with Tween-80); 100 % of control (dose: 200.0 mg/kg/injection, schedule: Q04DX003 (ip), vehicle: saline with Tween-80); 90 % of control (dose: 400.0 mg/kg/injection, schedule: Q04DX003 (ip), vehicle: saline with Tween-80).
In the case of `CC1(C)NN=C(SCc2ccccc2)NC1=O`, the T/C is 98 % of control (dose: 100.0 mg/kg/injection, schedule: Q04DX003 (ip), vehicle: Klucel (hydroxypropylcellulose) (HPC)); 100 % of control (dose: 200.0 mg/kg/injection, schedule: Q04DX003 (ip), vehicle: Klucel (hydroxypropylcellulose) (HPC)); 92 % of control (dose: 400.0 mg/kg/injection, schedule: Q04DX003 (ip), vehicle: Klucel (hydroxypropylcellulose) (HPC)).
With `CCOC(=O)c1ccc(NC(=S)NC(=O)c2cccc(Br)c2)cc1`, the T/C runs as follows: under setting [4], 95 % of control; under setting [5], 95 % of control; under setting [6], 90 % of control.
As for `O=[N+]([O-])c1ccc2c(ccn2C2OCC(O)C(O)C2O)c1` (stereo not drawn), the T/C by setting is: under setting [1], 94 % of control; under setting [2], 108 % of control; under setting [3], 106 % of control.
As for `Cc1nnc2c([N+](=O)[O-])c(N)c(Cl)nn12`, the T/C (dose: 7.5 mg/kg/injection, schedule: Q01DX005 (ip), vehicle: saline with Tween-80) is 118 % of control and the T/C (dose: 15.0 mg/kg/injection, schedule: Q01DX005 (ip), vehicle: saline with Tween-80) was 113 % of control.
With `CC1=N[C@@H](N2CCOCC2)[C@H](N2CCOCC2)N1c1ccccc1`, the T/C reads like this: under setting [7], 100 % of control; under setting [8], 107 % of control; under setting [9], 102 % of control.
`C=C1C(=O)OC2C/C(C)=C/CC/C(C)=C/CCC3(COC(C)=O)OC3CC12` (stereo not drawn): the T/C runs as follows: (dose: 1.0 mg/kg/injection, schedule: Q01DX008 (ip), vehicle: Klucel (hydroxypropylcellulose) (HPC)) 99 % of control; (dose: 2.0 mg/kg/injection, schedule: Q01DX008 (ip), vehicle: Klucel (hydroxypropylcellulose) (HPC)) 100 % of control; (dose: 4.0 mg/kg/injection, schedule: Q01DX008 (ip), vehicle: Klucel (hydroxypropylcellulose) (HPC)) 97 % of control; (dose: 8.0 mg/kg/injection, schedule: Q01DX008 (ip), vehicle: Klucel (hydroxypropylcellulose) (HPC)) 103 % of control; (dose: 16.0 mg/kg/injection, schedule: Q01DX008 (ip), vehicle: Klucel (hydroxypropylcellulose) (HPC)) 107 % of control.
Turning to `COc1ccc(O)c2c1C(=O)C=CC2=O`, the T/C is 104 % of control (dose: 0.4 mg/kg/injection, schedule: Q01DX001 (ip), vehicle: saline with Tween-80); 96 % of control (dose: 0.8 mg/kg/injection, schedule: Q01DX001 (ip), vehicle: saline with Tween-80); 105 % of control (dose: 1.56 mg/kg/injection, schedule: Q01DX001 (ip), vehicle: saline with Tween-80); 102 % of control (dose: 3.13 mg/kg/injection, schedule: Q01DX001 (ip), vehicle: saline with Tween-80).
Take `NC(=O)c1c(-c2ccccc2)nc2n1CCS2`: the T/C (dose: 100.0 mg/kg/injection, schedule: Q01DX001 (ip), vehicle: Klucel (hydroxypropylcellulose) (HPC)) was 106 % of control; the T/C (dose: 200.0 mg/kg/injection, schedule: Q01DX001 (ip), vehicle: Klucel (hydroxypropylcellulose) (HPC)) was 109 % of control; the T/C (dose: 400.0 mg/kg/injection, schedule: Q01DX001 (ip), vehicle: Klucel (hydroxypropylcellulose) (HPC)) is 107 % of control.
With `COc1cc2c(c(OC)c1OC)-c1c(cc3c(c1OC)OCO3)C1OC2C(C)C1C` (stereo not drawn) (tested in a mixture with another compound), the T/C is, setting by setting: (dose: 25.0 mg/kg/injection, schedule: Q01DX005 (ip), vehicle: Klucel (hydroxypropylcellulose) (HPC)) 100 % of control; under setting [10], 97 % of control; under setting [11], 100 % of control and 101 % of control; (dose: 200.0 mg/kg/injection, schedule: Q01DX005 (ip), vehicle: Klucel (hydroxypropylcellulose) (HPC)) 103 % of control and 106 % of control; (dose: 400.0 mg/kg/injection, schedule: Q01DX005 (ip), vehicle: Klucel (hydroxypropylcellulose) (HPC)) 99 % of control.
As to `COC1=CC(=O)OC(/C=C/c2ccccc2)(OC)C1=O` (stereo not drawn), the T/C by setting is: under setting [4], 102 % of control; under setting [5], 110 % of control; under setting [6], 101 % of control.
On to `COC1CCC(O)C(C(=O)CN(C)C)C1` (stereo not drawn), for which the T/C under setting [7] is 101 % of control, the T/C under setting [8] was 99 % of control and the T/C under setting [9] was 99 % of control.
On to `O=C1CC(c2ccccc2)NCCCCN2C(=O)C=Cc3ccccc3C2CCN1` (stereo not drawn), for which the T/C runs as follows: (dose: 6.25 mg/kg/injection, schedule: Q01DX009 (ip), vehicle: Klucel (hydroxypropylcellulose) (HPC)) 100 % of control; (dose: 12.5 mg/kg/injection, schedule: Q01DX009 (ip), vehicle: Klucel (hydroxypropylcellulose) (HPC)) 94 % of control.
For `COC(=O)CN1CC1`, the T/C runs as follows: (dose: 3.12 mg/kg/injection, schedule: Q01DX009 (ip), vehicle: saline with Tween-80) 100 % of control; (dose: 6.25 mg/kg/injection, schedule: Q01DX009 (ip), vehicle: saline with Tween-80) 95 % of control; (dose: 12.5 mg/kg/injection, schedule: Q01DX009 (ip), vehicle: saline with Tween-80) 94 % of control; (dose: 25.0 mg/kg/injection, schedule: Q01DX009 (ip), vehicle: saline with Tween-80) 95 % of control.
Take `CN(C)P(=O)(N(C)C)N(C)CO`: the T/C is 98 % of control and 100 % of control (dose: 50.0 mg/kg/injection, schedule: Q01DX009 (ip), vehicle: saline); 104 % of control and 110 % of control (dose: 100.0 mg/kg/injection, schedule: Q01DX009 (ip), vehicle: saline); 121 % of control and 122 % of control (dose: 200.0 mg/kg/injection, schedule: Q01DX009 (ip), vehicle: saline); 86 % of control (dose: 400.0 mg/kg/injection, schedule: Q01DX009 (ip), vehicle: saline).
`COc1ccc2nc(NC(=O)Nc3ccc(C)c(NC(=O)Nc4nc5ccc(OC)cc5s4)c3)sc2c1`: the T/C reads like this: (dose: 50.0 mg/kg/injection, schedule: Q01DX009 (ip), vehicle: Klucel (hydroxypropylcellulose) (HPC)) 92 % of control; (dose: 100.0 mg/kg/injection, schedule: Q01DX009 (ip), vehicle: Klucel (hydroxypropylcellulose) (HPC)) 89 % of control.
With `COc1cccc2c1C(=O)C=C(c1ccccc1)S2(=O)=O`, the T/C by setting is: under setting [10], 111 % of control; under setting [11], 111 % of control.
Consider `Nc1nc(N)c2cc(CNc3ccc(C(=O)NC(CC(=O)O)C(=O)O)cc3)ccc2n1` (stereo not drawn), for which the T/C runs as follows: (dose: 0.13 mg/kg/injection, schedule: Q04DX003 (ip), vehicle: saline with Tween-80) 109 % of control; (dose: 0.25 mg/kg/injection, schedule: Q04DX003 (ip), vehicle: saline with Tween-80) 113 % of control; (dose: 0.5 mg/kg/injection, schedule: Q01DX009 (ip), vehicle: saline) 181 % of control; (dose: 1.0 mg/kg/injection, schedule: Q01DX009 (ip), vehicle: saline) 200 % of control; (dose: 1.0 mg/kg/injection, schedule: Q04DX003 (ip), vehicle: saline with Tween-80) 150 % of control; (dose: 1.56 mg/kg/injection, schedule: Q01DX009 (ip), vehicle: saline) 222 % of control. The T/C (dose: 3.13 mg/kg/injection, schedule: Q01DX009 (ip), vehicle: saline) is 259 % of control and the T/C (dose: 6.25 mg/kg/injection, schedule: Q01DX009 (ip), vehicle: saline) was 90 % of control.
